Data: US8153821B2, “Compounds” (priority 2008, dated 2012)

Tests used:
panel of 65 receptors = assay: Multiple receptor screening assay; type: binding; settings: single concentration of 10 μM
Description: (§1) (R)-3-((E)-2-(Pyrrolidin-3-yl)vinyl)-5-(tetrahydropyran-4-yloxy)pyridine or a salt thereof was tested for selectivity against a panel of 65 receptors.

CYP2B6 = CYP2B6 (Homo sapiens, UniProt P20813); type: in vitro ADME
normal rats = assay: Novel object recognition (NOR); type: in vivo, rat; settings: for NOR duration of statistically significant effect after dosing: dose 0.004 μM/kg (0.004 μmol/kg oral), FIG. 2
Description: Memory was assessed by using a three-trial novel object recognition test (Luine et al., Pharm. Biochem. Behav. 74, 213-220 (2002)). On the first day (exploratory trial), rats were allowed to explore an open arena (44.5×44.5×30.5 cm) for 6 min. On the second day (acquisition trial), rats were allowed to explore the same arena in the presence of two identical objects (both object A) for 3 min. On the third day (retention or recall trial), performance was evaluated by allowing the same animal to re-explore the arena for 3 min in the presence of two different objects: the familiar object A and a novel object B. An inter-trial interval of 24 h was imposed between the three NOR trials. Recognition memory was assessed by comparing the time spent exploring a novel (object B) versus a familiar (object A) object during the recall trial. Recognition index was assessed for each animal and expressed as a ratio ((time B/time A+time B)×100).
(R)-3-((E)-2-(Pyrrolidin-3-yl)vinyl)-5-(tetrahydropyran-4-yloxy)pyridine or a salt thereof improved long-term visual episodic/declarative memory as assessed by novel object recognition (NOR) task following oral dosing in normal rats. […] In the two “recall only” sessions; subset of animals were orally dosed with water on day 1 (i.e., exploratory session) and day 2 (i.e., acquisition session) and then orally dosed either with 1.1 μmol/kg (R)-3-((E)-2-(pyrrolidin-3-yl)vinyl)-5-(tetrahydropyran-4-yloxy)pyridine or a salt thereof (left panel) or 0.04 μmol/kg (right panel) on day 3 (i.e., recall session). […] In the Figure, the dashed line at 65% denotes subjective criteria for biological cognitive enhancing activity. *P<0.05.
(R)-3-((E)-2-(Pyrrolidin-3-yl)vinyl)-5-(tetrahydropyran-4-yloxy)pyridine or a salt thereof was evaluated for its duration of effect in the NOR task in normal rats. […] In the Figure, the dashed line at 65% denotes subjective criteria for biological cognitive enhancing activity (*P<0.05).

α4β2 = α4β2 (Homo sapiens, UniProt P17787+P43681); assay: In vitro assay at α4β2, response compared to acetylcholine
[1] = test system: neuronal nicotinic receptors (α-BnTx insensitive); assay: Multiple receptor screening assay, nicotinic receptor; type: binding; settings: single concentration of 10 μM
Description: as §1

[2] = test system: rats with scopolamine-induced cognitive deficits; assay: Radial arm maze (RAM), scopolamine-induced deficit; type: in vivo, rat; settings: 0.03 mg/kg or 0.1 μmol/kg p.o. 0.5 h prior to test trial, scopolamine 0.3±0.1 mg/kg s.c.
Description: Working memory was assessed in a radial arm maze (RAM) task. The RAM task was conducted using an automated eight-arm maze (Med Associates, Inc.) The maze was located on a circular table approximately 88 cm above the floor with overhead lighting in a dedicated testing ambient and large, high contrast geometric shapes on the wall. Furthermore, additional visual cues were located at the hub entry into each arm, above each the food hopper and on the ceiling. The central platform measured 30.5 cm in diameter with eight arms (9 cm W×45.7 cm L×16.8 cm H) radiating from it. Automatic guillotine doors were located at the entrance to each runway with a pellet receptacle at the distal end of each arm. White noise will be audible during all training and testing procedures. Activity on the maze was monitored by tracking quantitative activity (generated by infra-red beam breaks) on the computer interface and monitor screen.
Following the baseline assessment and after re-attainment test session criterion, animals were assessed for their sensitivity to chemically-induced cognitive impairment using the muscarinic antagonist scopolamine (0.2-0.4 mg/kg; s.c.). A dose of scopolamine was determined for each animal based on the minimum dose that produced significant and reliable cognitive impairment. […]

CYP1A2 = CYP1A2 (Homo sapiens, UniProt P05177); type: in vitro ADME
[3] = human
From the text: Therefore any variation of (R)-3-((E)-2-(pyrrolidin-3-yl)vinyl)-5-(tetrahydropyran-4-yloxy)pyridine or a salt thereof metabolism in human due to CYP polymorphism is expected to be less than 2 fold due to the significant renal clearance and low hepatic clearance.

Sequence of α4β2 (P43681 29-627 limits assumed): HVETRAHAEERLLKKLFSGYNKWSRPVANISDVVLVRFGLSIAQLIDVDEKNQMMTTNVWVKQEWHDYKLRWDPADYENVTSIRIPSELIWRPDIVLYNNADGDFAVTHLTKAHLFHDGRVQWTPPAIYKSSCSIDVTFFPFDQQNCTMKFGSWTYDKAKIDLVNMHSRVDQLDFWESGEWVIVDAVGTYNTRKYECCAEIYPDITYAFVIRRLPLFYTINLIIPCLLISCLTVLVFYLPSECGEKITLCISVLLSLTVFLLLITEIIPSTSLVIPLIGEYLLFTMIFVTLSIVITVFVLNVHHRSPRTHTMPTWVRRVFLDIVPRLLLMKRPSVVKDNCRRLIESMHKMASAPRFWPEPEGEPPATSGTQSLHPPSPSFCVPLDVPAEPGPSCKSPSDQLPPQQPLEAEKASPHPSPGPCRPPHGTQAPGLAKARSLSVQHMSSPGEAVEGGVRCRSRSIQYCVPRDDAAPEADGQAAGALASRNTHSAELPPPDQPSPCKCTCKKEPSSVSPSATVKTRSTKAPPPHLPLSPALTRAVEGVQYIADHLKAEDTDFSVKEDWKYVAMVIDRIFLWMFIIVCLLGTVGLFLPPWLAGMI
Sequence of α4β2 (P17787 26-502): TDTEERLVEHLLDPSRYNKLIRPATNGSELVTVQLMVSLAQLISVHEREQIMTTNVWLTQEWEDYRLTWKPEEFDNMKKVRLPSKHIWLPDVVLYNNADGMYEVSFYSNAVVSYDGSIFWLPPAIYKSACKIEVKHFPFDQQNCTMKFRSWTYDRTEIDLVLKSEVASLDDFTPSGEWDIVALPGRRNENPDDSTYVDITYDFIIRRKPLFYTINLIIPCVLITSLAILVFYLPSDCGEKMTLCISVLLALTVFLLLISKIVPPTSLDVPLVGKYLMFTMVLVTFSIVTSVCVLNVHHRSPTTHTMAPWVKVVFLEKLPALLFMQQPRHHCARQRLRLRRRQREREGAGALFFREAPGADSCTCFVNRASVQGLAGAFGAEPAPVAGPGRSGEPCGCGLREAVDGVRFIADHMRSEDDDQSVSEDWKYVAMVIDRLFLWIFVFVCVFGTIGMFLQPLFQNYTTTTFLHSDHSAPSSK
Sequence of CYP1A2 (P05177 whole entry): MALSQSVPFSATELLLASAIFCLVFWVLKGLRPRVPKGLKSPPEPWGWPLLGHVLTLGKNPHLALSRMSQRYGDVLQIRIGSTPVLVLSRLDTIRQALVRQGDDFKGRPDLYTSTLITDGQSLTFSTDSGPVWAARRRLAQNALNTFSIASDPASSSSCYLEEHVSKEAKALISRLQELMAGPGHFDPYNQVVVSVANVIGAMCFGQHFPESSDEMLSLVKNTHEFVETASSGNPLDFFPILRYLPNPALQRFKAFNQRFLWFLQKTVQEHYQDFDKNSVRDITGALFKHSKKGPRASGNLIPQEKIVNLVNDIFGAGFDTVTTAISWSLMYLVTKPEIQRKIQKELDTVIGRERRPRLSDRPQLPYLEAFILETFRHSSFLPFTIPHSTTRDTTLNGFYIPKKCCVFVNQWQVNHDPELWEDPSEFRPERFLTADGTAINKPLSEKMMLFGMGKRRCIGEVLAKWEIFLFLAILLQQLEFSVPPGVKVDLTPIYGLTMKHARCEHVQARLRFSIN
Sequence of CYP2B6 (P20813 whole entry): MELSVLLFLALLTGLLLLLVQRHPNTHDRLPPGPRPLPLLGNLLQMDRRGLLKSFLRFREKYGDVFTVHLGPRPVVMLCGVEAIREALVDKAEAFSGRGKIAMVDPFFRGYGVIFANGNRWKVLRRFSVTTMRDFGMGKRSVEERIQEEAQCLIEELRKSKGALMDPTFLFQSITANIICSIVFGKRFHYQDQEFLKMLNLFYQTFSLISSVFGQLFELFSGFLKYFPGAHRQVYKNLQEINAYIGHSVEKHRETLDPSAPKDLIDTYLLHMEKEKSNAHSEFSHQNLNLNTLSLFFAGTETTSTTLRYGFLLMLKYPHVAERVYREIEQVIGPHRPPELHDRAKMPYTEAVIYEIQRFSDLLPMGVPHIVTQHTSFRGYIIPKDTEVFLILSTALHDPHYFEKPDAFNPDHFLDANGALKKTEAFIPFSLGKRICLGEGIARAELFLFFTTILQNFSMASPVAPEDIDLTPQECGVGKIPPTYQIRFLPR

**Q.** With C(=C\[C@H]1CCNC1)/c1cncc(OC2CCOCC2)c1 [Compound A, (R)-3-((E)-2-(pyrrolidin-3-yl)vinyl)-5-(tetrahydropyran-4-yloxy)pyridine] as the molecule, how does the “Multiple receptor screening assay, receptors hit” value (panel of 65 receptors) read?
**A.** only to neuronal nicotinic receptors (α-BnTx insensitive)

**Q.** And the “Multiple receptor screening assay, receptors hit” value (panel of 65 receptors; listed as (R)-3-(2-(pyrrolidin-3-yl)vinyl)-5-((tetrahydro-2H-pyran-4 yl)oxy)pyridine)?
**A.** Only nicotinic

**Q.** What about the “time-dependent inhibition of CYP2B6” value (CYP2B6) of the same molecule?
**A.** no evidence of time-dependent inhibition

**Q.** And the NOR recognition index (normal rats; 0.004 μmol/kg oral, 0.5 h after dosing)?
**A.** 72±2%

**Q.** And the NOR recognition index (normal rats; 0.004 μmol/kg oral, 6 h after dosing)?
**A.** 70±3%

**Q.** What about the NOR recognition index (normal rats; 0.004 μmol/kg oral, 8 h after dosing) of the same molecule?
**A.** 70±4%

**Q.** And the NOR recognition index (normal rats; 0.04 μmol/kg oral, normal rats, 24 h after acquisition trial)?
**A.** 71±2%

**Q.** What about the NOR recognition index (normal rats; 1.1 μmol/kg oral, normal rats, 24 h after acquisition trial) of the same molecule?
**A.** 61±3%

**Q.** And the “NOR lowest dose with statistically significant effect” value (normal rats; FIG. 1)?
**A.** ≥ 0.004 µM/kg

**Q.** What about the “NOR duration of statistically significant effect after dosing” value (normal rats) of the same molecule?
**A.** ≤ 8 h

**Q.** What about the “NOR duration of statistically significant effect after dosing” value (normal rats; listed as (R)-3-((E)-2-(pyrrolidin-3-yl)vinyl)-5-(tetrahydropyran-4-yloxy)pyridine) of the same molecule?
**A.** up to 8 h

**Q.** And the “NOR duration of statistically significant effect after dosing” value (normal rats; listed as Formula I)?
**A.** ≤ 8 h

**Q.** And the “NOR minimum effect dose (MED)” value (normal rats; oral, follow-up NOR study, rats)?
**A.** 0.004 µmol/kg

**Q.** What about the “NOR recognition index, recall only sessions” value (normal rats; single oral administration on day 3, 1.1 μmol/kg or 0.04 μmol/kg) of the same molecule?
**A.** significantly above controls

**Q.** And the “response compared to acetylcholine” value (α4β2)?
**A.** twice as great

**Q.** And the “inhibition of binding of labelled ligand” value [1]?
**A.** 99%

**Q.** What about the “RAM effect on scopolamine-induced cognitive deficits” value [2] of the same molecule?
**A.** overcomes scopolamine induced deficits

**Q.** And the “RAM effect on scopolamine-induced cognitive deficits” value ([2]; listed as (R)-3-((E)-2-(Pyrrolidin-3-yl)vinyl)-5-(tetrahydropyran-4-yloxy)pyridine)?
**A.** able to reverse scopolamine-induced cognitive deficits

**Q.** What about the “time-dependent inhibition of CYP1A2” value (CYP1A2) of the same molecule?
**A.** no evidence of time-dependent inhibition

**Q.** And the “renal clearance share of total clearance” value [3]?
**A.** more than 50%
